According to paper PMC5320522, “Membrane targeting of TIRAP is negatively regulated by phosphorylation in its phosphoinositide-binding motif” (Scientific Reports, 2017):
Where two headings read alike, the source gives them in different places.

Experiments:
Assay type in all cases: binding
[1] = molecular target: T1, TIRAP PBM (Homo sapiens, UniProt P58753); assay: SPR, L1 chip with liposomes, steady-state fit; settings: DOPC liposomes with 5% PtdIns(4,5)P2; 20 mM HEPES pH 7, 100 mM NaCl; room temperature; synthetic peptide phosphorylated at Thr28; saturation not reached
T1 construct: recombinant (isotope-labelled) or synthetic (Thr28-P); GST-fused in overlay assays

[2] = molecular target: T1, TIRAP PBM; assay: SPR, L1 chip with liposomes, steady-state fit; settings: DOPC liposomes with 5% PtdIns(4,5)P2; 20 mM HEPES pH 7, 100 mM NaCl; room temperature; read-out: KD (apparent)
[3] = molecular target: T1, TIRAP PBM; assay: 1H, […]-HSQC NMR; lipid-protein overlay; settings: DPC micelles, pH 6, 25 °C (NMR)

T1 sequence (P58753 15-35): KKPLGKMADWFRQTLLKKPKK

| Molecule | Kd [1] [nM] | Kd [2] [nM] | 1H,15N-HSQC NMR; lipid-protein overlay [3] |
| --- | --- | --- | --- |
| PtdIns(4,5)P2 | 787 ± 291 | 233 ± 45 |  |
| CCCCCCCCCCCCCCCC(=O)OC[C@H](COP(=O)(O)O[C@@H]1[C@H](O)[C@H](O)[C@@H](OP(=O)(O)O)[C@H](OP(=O)(O)O)[C@H]1O)OC(=O)CCCCCCCCCCCCCCC [c16-PtdIns(4,5)P2] |  |  | Similar, but larger, resonance perturbations in DPC-embedded TIRAP PBM spectra were observed |
